Laboratory results as given in ChEMBL document CHEMBL1177695, “Discovery and development of natural product-derived chemotherapeutic agents based on a medicinal chemistry approach” (J Nat Prod, 2010).
In brackets after ≈: the same amount, converted by molar mass.

Key:
[1] = Inhibition of tubulin polymerization
KB [2] = test: Cytotoxicity against human KB cells; type: functional, cell-based
KB [3] = test: Cytotoxicity against CPT-resistant human KB cells […] reduced level of topoisomerase; type: functional, cell-based
[4] = Cytotoxicity against human KB-7d cells expressing multidrug-resistant protein; type: functional, cell-based; conditions: KB7D
[5] = Cytotoxicity against vincristine-resistant human KB/VCR cells overexpressing P-glycoprotein; type: functional, cell-based
P388 = test: Antitumor activity against mouse P388 cells allografted in mouse at 8 mg/kg relative to control; type: functional
A549 = test: Cytotoxicity against human A549 cells; type: functional, cell-based; conditions: a549
[6] = Therapeutic index, ratio of IC50 for human H9 cells to EC50 for multidrug-resistant HIV1 RTMDR1; type: cell-based; conditions: read-out: TI
[7] = tested on: Human immunodeficiency virus 1; test: Antiviral activity against multidrug-resistant HIV1 RTMDR1 infected in H9 cells assessed as inhibition of viral replication by p24 antigen ELISA; type: functional, organism-based; conditions: Human immunodeficiency virus 1, RTMDR1, H9
H9 = test: Cytotoxicity against human H9 cells after 4 days by coulter counter; type: cell-based; conditions: Homo sapiens, H9, 96 h
[8] = Therapeutic index, ratio of IC50 for human H9 cells to EC50 for HIV 3B; type: cell-based; conditions: read-out: TI
PC-3 = test: Cytotoxicity against human PC3 cells after 2 days; type: functional, cell-based; conditions: PC-3, 48 h
LNCaP = test: Cytotoxicity against human LNCAP cells after 2 days; type: functional, cell-based; conditions: 48 h
ZR-75-1 [9] = test: Cytotoxicity against human ZR-75-1 cells; type: functional; conditions: read-out: ED50 (the source's name)
MCF7 [10] = test: Cytotoxicity against human MCF7 cells; type: functional; conditions: read-out: ED50 (the source's name)
SK-BR-3 [11] = test: Cytotoxicity against human SK-BR-3 cells overexpressing HER2; type: functional; conditions: read-out: ED50 (the source's name)
Tubulin = test: Inhibition of tubulin polymerization
MCF7 [12] = test: Cytotoxicity against human MCF7 cells after 72 hrs by sulforhodamine B assay; type: functional; conditions: MCF7, 72 h, read-out: ED50 (the source's name)
ZR-75-1 [13] = test: Cytotoxicity against human ZR-75-1 cells after 72 hrs by sulforhodamine B assay; type: functional; conditions: ZR-75-1, 72 h, read-out: ED50 (the source's name)
SK-BR-3 [14] = test: Cytotoxicity against human SK-BR-3 cells after 72 hrs by sulforhodamine B assay; type: functional; conditions: SK-BR-3, 72 h, read-out: ED50 (the source's name)
MDA-MB-231 = test: Cytotoxicity against human MDA-MB-231 cells after 72 hrs by sulforhodamine B assay; type: functional; conditions: MDA-MB-231, 72 h, read-out: ED50 (the source's name)
[15] = Antitumor activity against rat Walker 256 cells allografted in rat at 2.5 mg/kg relative to control; type: functional
OVCAR-3 = test: Antitumor activity against human OVCAR-3 cells xenografted in mouse assessed as increase in mouse life span; type: functional, cell-based
Hep-2 (human) = test: Cytotoxicity against human Hep-2 cells; conditions: read-out: ED50 (the source's name)
[16] = tested on: Human immunodeficiency virus 1; test: Antiviral activity against HIV1 infected in human H9 cells after 4 days by p24 antigen ELISA; type: functional, organism-based; conditions: Human immunodeficiency virus 1, H9, 96 h
[17] = tested on: Human immunodeficiency virus 1; test: Anti-HIV-1 activity in human H9 cells; conditions: H9, 96 h
[18] = Therapeutic index, ratio of IC50 for human H9 cells to EC50 for HIV1; type: cell-based; conditions: read-out: TI
[19] = Cytotoxicity against human KBVIN cells after 3 days by sulforhodamine B assay; type: functional, cell-based; conditions: 72 h
KB [20] = test: Selectivity ratio of EC50 for human KB cells to EC50 for vincristine-resistant human KB cells; type: functional
[21] = tested on: Human immunodeficiency virus 1; test: Antiviral activity against HIV1 3B infected in H9 cells assessed as inhibition of viral replication by p24 antigen ELISA; type: functional, organism-based; conditions: Human immunodeficiency virus 1, 3B, H9; read-out: EC50

SMILES: COc1ccc2c(c1)c(=O)ccc1cc(OC)c(OC)c(OC)c12
- IC50 [1]: 1000 nM
- EC50 (KB [2]): 0.029 µg/mL (≈ 0.0889 µM)
- EC50 (KB [3]): 0.042 µg/mL (≈ 0.129 µM)
- EC50 [4]: 0.024 µg/mL (≈ 0.0735 µM)
- EC50 [5]: 0.016 µg/mL (≈ 0.049 µM)

SMILES: C=C1C(=O)O[C@@H]2C[C@@H](C)[C@H]3C=CC(=O)[C@@]3(C)[C@@H](OC(=O)CCCC(=O)O[C@H]3[C@H]4C(=C)C(=O)O[C@@H]4C[C@H](C)[C@H]4C=CC(=O)[C@]43C)[C@@H]12
- T/C (P388): 195%

SMILES: COc1ccc2c(CNCCCCCCO)cc3cc4c(cc3c2c1)OCO4
- IC50 (A549): 160 nM

SMILES: Cc1cc(=O)c2ccc3c(c2o1)[C@@H](OC(=O)C12CCC(C)(C(=O)O1)C2(C)C)[C@@H](OC(=O)C12CCC(C)(C(=O)O1)C2(C)C)C(C)(C)O3 (some centres undefined)
- selectivity ratio [6]: 63
- EC50 [7]: 190 nM
- IC50 (H9): 11800 nM
- selectivity ratio [8]: 8600

SMILES: CCOC(=O)/C=C/C(C(=O)/C=C/c1ccc(OC)c(OC)c1)=C(O)\C=C\c1ccc(OC)c(OC)c1
- IC50 (PC-3): 1000 nM
- IC50 (LNCaP): 200 nM

SMILES: CCc1cccc2c1ccc1c3occ(C)c3c(=O)oc21
- EC50 (ZR-75-1 [9]): 0.18 µg/mL (≈ 0.647 µM)
- EC50 (MCF7 [10]): 0.45 µg/mL (≈ 1.62 µM)
- EC50 (SK-BR-3 [11]): 0.1 µg/mL (≈ 0.359 µM)

SMILES: Cc1cnc2[nH]c(-c3cccc(F)c3)cc(=O)c2c1
- IC50 (Tubulin): 630 nM

SMILES: Cc1cnc2[nH]c(-c3cccc(Cl)c3)cc(=O)c2c1
- IC50 (Tubulin): 720 nM

SMILES: CCCc1cccc2c1ccc1c3occ(C)c3c(=O)oc21
- EC50 (MCF7 [12]): 1.2 µg/mL (≈ 4.1 µM)
- EC50 (ZR-75-1 [13]): 0.3 µg/mL (≈ 1.03 µM)
- EC50 (SK-BR-3 [14]): 0.1 µg/mL (≈ 0.342 µM)
- EC50 (MDA-MB-231): > 10 µg/mL

SMILES: C=C(C)C(=O)O[C@H]1C/C(C)=C\[C@@]2(OCC)C=C(C)[C@H](O2)[C@H]2OC(=O)C(=C)[C@@H]21 [PHANTOMOLIN]
- T/C [15]: 378%

SMILES: O=c1cc(-c2ccccc2F)[nH]c2cc3c(cc12)OCO3
- Activity (OVCAR-3): 130%
- IC50 [1]: 850 nM

SMILES: COc1cccc(-c2cc(=O)c3ccc(C)nc3[nH]2)c1
- IC50 (Tubulin): 750 nM

SMILES: C[C@@H]1C[C@H]2OC(=O)[C@@H](C)[C@H]2[C@H](O)[C@]2(C)C(=O)C=C[C@@H]12
- EC50 (Hep-2 (human)): 0.8 µg/mL (≈ 3.03 µM)

SMILES: C=C(C)[C@@H]1CC[C@]2(C(=O)O)CC[C@]3(C)[C@H](CC[C@@H]4[C@@]5(C)CC[C@H](OC(=O)CC(C)(C)CC(=O)O)C(C)(C)[C@@H]5CC[C@]43C)[C@@H]12
- IC50 [16]: 4500 nM
- EC50 [17]: 3 nM
- selectivity ratio [18]: 2000

SMILES: CCc1cc(=O)c2ccc3c(c2o1)[C@@H](OC(=O)C12CCC(C)(C(=O)O1)C2(C)C)[C@@H](OC(=O)C12CCC(C)(C(=O)O1)C2(C)C)C(C)(C)O3 (some centres undefined)
- selectivity ratio [6]: 718
- EC50 [7]: 60 nM
- IC50 (H9): 37200 nM
- selectivity ratio [8]: 116000

SMILES: C=C1C(=O)O[C@H]2[C@H]1[C@@H](OC(=O)/C(C)=C/C)C/C(C)=C/C(=O)/C=C(/C)[C@@H]2O [MOLEPHANTININ]
- T/C [15]: 397%

SMILES: C=C(C)[C@@H]1CC[C@]2(C(=O)O)CC[C@]3(C)[C@H](CC[C@@H]4[C@@]5(C)CC[C@H](OC(=O)CC(C)(C)C(=O)O)C(C)(C)[C@@H]5CC[C@]43C)[C@@H]12 [BEVIRIMAT]
- EC50 [17]: 0.35 nM
- selectivity ratio [18]: 20000

SMILES: CCC1=C(O)c2c(oc(-c3ccc(C)cc3)cc2=O)C(CC)(CC)C1=O [6,8,8-TRIETHYL-4-METHYL DESMOSDUMOTIN B]
- EC50 [19]: 0.03 µg/mL (≈ 0.0851 µM)
- Ratio EC50 (KB [20]): >460

SMILES: CCOCc1cc(=O)c2ccc3c(c2o1)[C@@H](OC(=O)C12CCC(C)(C(=O)O1)C2(C)C)[C@@H](OC(=O)C12CCC(C)(C(=O)O1)C2(C)C)C(C)(C)O3 (some centres undefined)
- selectivity ratio [6]: 34
- EC50 [7]: 370 nM
- EC50 [21]: 100 nM
- IC50 (H9): 12500 nM
- selectivity ratio [8]: 151

SMILES: CCCc1cc(=O)c2ccc3c(c2o1)[C@@H](OC(=O)C12CCC(C)(C(=O)O1)C2(C)C)[C@@H](OC(=O)C12CCC(C)(C(=O)O1)C2(C)C)C(C)(C)O3 (some centres undefined)
- selectivity ratio [6]: > 272
- EC50 [7]: 140 nM
- EC50 [21]: 20 nM
- IC50 (H9): > 37700 nM
- selectivity ratio [8]: 1860
